Reference: ChEMBL document CHEMBL3867433, “Synthesis and antimicrobial activity of styryl/pyrrolyl/pyrazolyl sulfonylmethyl-1,3,4-oxadiazolyl amines and styryl/pyrrolyl/pyrazolyl sulfonylmethyl-1,3,4-thiadiazolyl amines” (2016)
Converted amounts (≈) assume the structure as drawn.

Legend:
Format in all cases: functional
[1] = Antifungal activity against Penicillium chrysogenum assessed as inhibition of spore germination at 100 ug/well after 48 hrs by agar well diffusion method
Pseudomonas aeruginosa [2] = assay: Antibacterial activity against Pseudomonas aeruginosa at 25 ug/well after 24 hrs by agar well diffusion method; conditions: read-out: DIZ
Klebsiella pneumoniae [3] = assay: Antibacterial activity against Klebsiella pneumoniae at 25 ug/well after 24 hrs by agar well diffusion method; conditions: read-out: DIZ
Aspergillus niger [4] = assay: Antifungal activity against Aspergillus niger assessed as inhibition of spore germination at 50 ug/well after 48 hrs by agar well diffusion method; conditions: read-out: DIZ
Pseudomonas aeruginosa [5] = assay: Antibacterial activity against Pseudomonas aeruginosa at 100 ug/well after 24 hrs by agar well diffusion method; conditions: read-out: DIZ
Staphylococcus aureus [6] = assay: Antibacterial activity against Staphylococcus aureus at 50 ug/well after 24 hrs by agar well diffusion method; conditions: read-out: DIZ
Aspergillus niger [7] = assay: Antifungal activity against Aspergillus niger assessed as inhibition of spore germination at 25 ug/well after 48 hrs by agar well diffusion method; conditions: read-out: DIZ
Bacillus subtilis [8] = assay: Antibacterial activity against Bacillus subtilis at 25 ug/well after 24 hrs by agar well diffusion method; conditions: read-out: DIZ
Bacillus subtilis [9] = assay: Antibacterial activity against Bacillus subtilis at 50 ug/well after 24 hrs by agar well diffusion method; conditions: read-out: DIZ
Staphylococcus aureus [10] = assay: Antibacterial activity against Staphylococcus aureus at 100 ug/well after 24 hrs by agar well diffusion method; conditions: read-out: DIZ
Aspergillus niger [11] = assay: Antifungal activity against Aspergillus niger assessed as inhibition of spore germination at 12.5 ug/well after 48 hrs by agar well diffusion method; conditions: read-out: DIZ
[12] = Antifungal activity against Penicillium chrysogenum assessed as inhibition of spore germination at 25 ug/well after 48 hrs by agar well diffusion method
Staphylococcus aureus [13] = assay: Antibacterial activity against Staphylococcus aureus at 25 ug/well after 24 hrs by agar well diffusion method; conditions: read-out: DIZ
Aspergillus niger [14] = assay: Antifungal activity against Aspergillus niger assessed as inhibition of spore germination at 100 ug/well after 48 hrs by agar well diffusion method; conditions: read-out: DIZ
Pseudomonas aeruginosa [15] = assay: Antibacterial activity against Pseudomonas aeruginosa at 12.5 ug/well after 24 hrs by agar well diffusion method; conditions: read-out: DIZ
Klebsiella pneumoniae [16] = assay: Antibacterial activity against Klebsiella pneumoniae at 100 ug/well after 24 hrs by agar well diffusion method; conditions: read-out: DIZ
[17] = Antifungal activity against Penicillium chrysogenum assessed as inhibition of spore germination at 50 ug/well after 48 hrs by agar well diffusion method
Klebsiella pneumoniae [18] = assay: Antibacterial activity against Klebsiella pneumoniae at 50 ug/well after 24 hrs by agar well diffusion method; conditions: read-out: DIZ
Bacillus subtilis [19] = assay: Antibacterial activity against Bacillus subtilis at 100 ug/well after 24 hrs by agar well diffusion method; conditions: read-out: DIZ
[20] = Antifungal activity against Penicillium chrysogenum assessed as inhibition of spore germination at 12.5 ug/well after 48 hrs by agar well diffusion method
Staphylococcus aureus [21] = assay: Antibacterial activity against Staphylococcus aureus at 12.5 ug/well after 24 hrs by agar well diffusion method; conditions: read-out: DIZ
Pseudomonas aeruginosa [22] = assay: Antibacterial activity against Pseudomonas aeruginosa at 50 ug/well after 24 hrs by agar well diffusion method; conditions: read-out: DIZ
Bacillus subtilis [23] = assay: Antibacterial activity against Bacillus subtilis at 12.5 ug/well after 24 hrs by agar well diffusion method; conditions: read-out: DIZ
Klebsiella pneumoniae [24] = assay: Antibacterial activity against Klebsiella pneumoniae at 12.5 ug/well after 24 hrs by agar well diffusion method; conditions: read-out: DIZ
Aspergillus niger [25] = assay: Fungicidal activity against Aspergillus niger assessed as inhibition of spore germination after 48 hrs
Pseudomonas aeruginosa [26] = assay: Antibacterial activity against Pseudomonas aeruginosa after 24 hrs by broth dilution method
Klebsiella pneumoniae [27] = assay: Antibacterial activity against Klebsiella pneumoniae after 24 hrs by broth dilution method
Aspergillus niger [28] = assay: Antifungal activity against Aspergillus niger assessed as inhibition of spore germination after 48 hrs by broth dilution method
Klebsiella pneumoniae [29] = assay: Bactericidal activity against Klebsiella pneumoniae after 24 hrs
Staphylococcus aureus [30] = assay: Bactericidal activity against Staphylococcus aureus after 24 hrs
Bacillus subtilis [31] = assay: Antibacterial activity against Bacillus subtilis after 24 hrs by broth dilution method
Staphylococcus aureus [32] = assay: Antibacterial activity against Staphylococcus aureus after 24 hrs by broth dilution method
Penicillium chrysogenum [33] = assay: Ratio of MFC to MIC for Penicillium chrysogenum
Bacillus subtilis [34] = assay: Bactericidal activity against Bacillus subtilis after 24 hrs
Penicillium chrysogenum [35] = assay: Fungicidal activity against Penicillium chrysogenum assessed as inhibition of spore germination after 48 hrs
[36] = Antifungal activity against Penicillium chrysogenum assessed as inhibition of spore germination after 48 hrs by broth dilution method
Pseudomonas aeruginosa [37] = assay: Bactericidal activity against Pseudomonas aeruginosa after 24 hrs
Pseudomonas aeruginosa [38] = assay: Ratio of MBC to MIC for Pseudomonas aeruginosa

SMILES | inhibition zone (IZ) [1] [mm] | zone of inhibition at 25 µg/disc (Pseudomonas aeruginosa [2]) [mm] | zone of inhibition at 25 µg/disc (Klebsiella pneumoniae [3]) [mm] | zone of inhibition at 50 µg/disc (Aspergillus niger [4]) [mm] | zone of inhibition at 100 µg/disc (Pseudomonas aeruginosa [5]) [mm] | zone of inhibition at 50 µg/disc (Staphylococcus aureus [6]) [mm] | zone of inhibition at 25 µg/disc (Aspergillus niger [7]) [mm] | zone of inhibition at 25 µg/disc (Bacillus subtilis [8]) [mm] | zone of inhibition at 50 µg/disc (Bacillus subtilis [9]) [mm] | zone of inhibition at 100 µg/disc (Staphylococcus aureus [10]) [mm] | zone of inhibition at 12.5 µg/disc (Aspergillus niger [11]) [mm] | inhibition zone (IZ) [12] [mm] | zone of inhibition at 25 µg/disc (Staphylococcus aureus [13]) [mm] | zone of inhibition at 100 µg/disc (Aspergillus niger [14]) [mm] | zone of inhibition at 12.5 µg/disc (Pseudomonas aeruginosa [15]) [mm] | zone of inhibition at 100 µg/disc (Klebsiella pneumoniae [16]) [mm] | inhibition zone (IZ) [17] [mm] | zone of inhibition at 50 µg/disc (Klebsiella pneumoniae [18]) [mm] | zone of inhibition at 100 µg/disc (Bacillus subtilis [19]) [mm] | inhibition zone (IZ) [20] [mm] | further results
Nc1nnc(CS(=O)(=O)/C=C\c2ccc(Cl)cc2)o1 | 20 | 17 | 18 | 17 | 21 | 16 | 15 | 14 | 15 | 20 | 13 | 16 | 14 | 19 | 15 | 22 | 18 | 20 | 17 | 15 | zone of inhibition at 12.5 µg/disc (Staphylococcus aureus [21]): 12 mm; zone of inhibition at 50 µg/disc (Pseudomonas aeruginosa [22]): 19 mm; zone of inhibition at 12.5 µg/disc (Bacillus subtilis [23]): 13 mm; zone of inhibition at 12.5 µg/disc (Klebsiella pneumoniae [24]): 16 mm
Nc1nnc(CS(=O)(=O)c2c[nH]cc2-c2ccccc2)s1 | 31 | 21 | 27 | 16 | 25 | 22 | 14 | 21 | 22 | 24 | 12 | 27 | 19 | 18 | 19 | 31 | 29 | 29 | 24 | 25 | zone of inhibition at 12.5 µg/disc (Staphylococcus aureus [21]): 17 mm; zone of inhibition at 50 µg/disc (Pseudomonas aeruginosa [22]): 23 mm; zone of inhibition at 12.5 µg/disc (Bacillus subtilis [23]): 20 mm; zone of inhibition at 12.5 µg/disc (Klebsiella pneumoniae [24]): 26 mm
Nc1nnc(CS(=O)(=O)c2c[nH]cc2-c2ccc(Cl)cc2)s1 | 37 | 22 | 30 | 19 | 26 | 21 | 17 | 22 | 23 | 23 | 15 | 32 | 19 | 21 | 20 | 34 | 34 | 32 | 25 | 29 | MFC (Aspergillus niger [25]): 100 µg/mL (≈ 282 µM); MIC (Pseudomonas aeruginosa [26]): 25 µg/mL (≈ 70.5 µM); MIC (Klebsiella pneumoniae [27]): 25 µg/mL (≈ 70.5 µM); MIC (Aspergillus niger [28]): 25 µg/mL (≈ 70.5 µM); MBC (Klebsiella pneumoniae [29]): > 100 µg/mL; MBC (Staphylococcus aureus [30]): > 200 µg/mL; MIC (Bacillus subtilis [31]): 50 µg/mL (≈ 141 µM); MIC (Staphylococcus aureus [32]): 50 µg/mL (≈ 141 µM); Ratio (Penicillium chrysogenum [33]): >2; MBC (Bacillus subtilis [34]): > 200 µg/mL; MFC (Penicillium chrysogenum [35]): > 200 µg/mL; MIC [36]: 50 µg/mL (≈ 141 µM); MBC (Pseudomonas aeruginosa [37]): 100 µg/mL (≈ 282 µM); zone of inhibition at 12.5 µg/disc (Staphylococcus aureus [21]): 17 mm; zone of inhibition at 50 µg/disc (Pseudomonas aeruginosa [22]): 24 mm; zone of inhibition at 12.5 µg/disc (Bacillus subtilis [23]): 21 mm; Ratio (Pseudomonas aeruginosa [38]): >2; zone of inhibition at 12.5 µg/disc (Klebsiella pneumoniae [24]): 28 mm
Cc1ccc(/C=C\S(=O)(=O)Cc2nnc(N)s2)cc1 | 31 | 23 | 25 | 26 | 27 | 21 | 24 | 26 | 27 | 23 | 22 | 27 | 20 | 28 | 21 | 29 | 29 | 27 | 29 | 25 | zone of inhibition at 12.5 µg/disc (Staphylococcus aureus [21]): 19 mm; zone of inhibition at 50 µg/disc (Pseudomonas aeruginosa [22]): 25 mm; zone of inhibition at 12.5 µg/disc (Bacillus subtilis [23]): 25 mm; zone of inhibition at 12.5 µg/disc (Klebsiella pneumoniae [24]): 23 mm
O=C(N[C@H](CO)[C@H](O)c1ccc([N+](=O)[O-])cc1)C(Cl)Cl [CHLORAMPHENICOL] | – | 27 | 40 | – | 32 | 35 | – | 34 | 36 | 37 | – | – | 32 | – | 25 | 44 | – | 42 | 40 | – | MIC (Pseudomonas aeruginosa [26]): 6.25 µg/mL (≈ 19.3 µM); MIC (Klebsiella pneumoniae [27]): 12.5 µg/mL (≈ 38.7 µM); MIC (Bacillus subtilis [31]): 6.25 µg/mL (≈ 19.3 µM); MIC (Staphylococcus aureus [32]): 6.25 µg/mL (≈ 19.3 µM); zone of inhibition at 12.5 µg/disc (Staphylococcus aureus [21]): 30 mm; zone of inhibition at 50 µg/disc (Pseudomonas aeruginosa [22]): 29 mm; zone of inhibition at 12.5 µg/disc (Bacillus subtilis [23]): 32 mm; zone of inhibition at 12.5 µg/disc (Klebsiella pneumoniae [24]): 38 mm
CC(=O)N1CCN(c2ccc(OCC3COC(Cn4ccnc4)(c4ccc(Cl)cc4Cl)O3)cc2)CC1 (stereo not drawn) [KETOCONAZOLE] | 39 | – | – | 34 | – | – | 31 | – | – | – | 29 | 36 | – | 37 | – | – | 37 | – | – | 34 | MIC (Aspergillus niger [28]): 6.25 µg/mL (≈ 11.8 µM); MIC [36]: 12.5 µg/mL (≈ 23.5 µM)
Nc1nnc(CS(=O)(=O)/C=C\c2ccccc2)o1 | 17 | 16 | 17 | 13 | 20 | 15 | 11 | 13 | 14 | 18 | 9 | 13 | 13 | 15 | 14 | 21 | 15 | 19 | 16 | 11 | zone of inhibition at 12.5 µg/disc (Staphylococcus aureus [21]): 11 mm; zone of inhibition at 50 µg/disc (Pseudomonas aeruginosa [22]): 18 mm; zone of inhibition at 12.5 µg/disc (Bacillus subtilis [23]): 12 mm; zone of inhibition at 12.5 µg/disc (Klebsiella pneumoniae [24]): 15 mm
Cc1ccc(-c2c[nH]nc2S(=O)(=O)Cc2nnc(N)s2)cc1 | 34 | 22 | 24 | 25 | 26 | 18 | 23 | 22 | 23 | 20 | 21 | 30 | 17 | 27 | 20 | 28 | 32 | 26 | 25 | 28 | zone of inhibition at 12.5 µg/disc (Staphylococcus aureus [21]): 16 mm; zone of inhibition at 50 µg/disc (Pseudomonas aeruginosa [22]): 24 mm; zone of inhibition at 12.5 µg/disc (Bacillus subtilis [23]): 21 mm; zone of inhibition at 12.5 µg/disc (Klebsiella pneumoniae [24]): 22 mm
